Three compounds from ChEMBL document CHEMBL1132956 (J Med Chem, 2000) can be followed below.

Assay [1] is filed under the species Homo sapiens. The assay can be described thus: tissue or blood.
Description: In vitro assay for PGE-2 production as a function of COX-2 inhibition in whole human blood cultured with lipopolysaccharide (LPS)
The species named for assay [2] is Homo sapiens. Nature of the assay: tissue or blood. The source holds these as a separate data set.
Description: Analysis of TXB2 as a function of COX-1 activity in heparinized human whole blood.
For assay [3], the target named is Prostaglandin G/H synthase 1 (Homo sapiens, UniProt P23219).
Chain of Prostaglandin G/H synthase 1 (P23219 whole entry): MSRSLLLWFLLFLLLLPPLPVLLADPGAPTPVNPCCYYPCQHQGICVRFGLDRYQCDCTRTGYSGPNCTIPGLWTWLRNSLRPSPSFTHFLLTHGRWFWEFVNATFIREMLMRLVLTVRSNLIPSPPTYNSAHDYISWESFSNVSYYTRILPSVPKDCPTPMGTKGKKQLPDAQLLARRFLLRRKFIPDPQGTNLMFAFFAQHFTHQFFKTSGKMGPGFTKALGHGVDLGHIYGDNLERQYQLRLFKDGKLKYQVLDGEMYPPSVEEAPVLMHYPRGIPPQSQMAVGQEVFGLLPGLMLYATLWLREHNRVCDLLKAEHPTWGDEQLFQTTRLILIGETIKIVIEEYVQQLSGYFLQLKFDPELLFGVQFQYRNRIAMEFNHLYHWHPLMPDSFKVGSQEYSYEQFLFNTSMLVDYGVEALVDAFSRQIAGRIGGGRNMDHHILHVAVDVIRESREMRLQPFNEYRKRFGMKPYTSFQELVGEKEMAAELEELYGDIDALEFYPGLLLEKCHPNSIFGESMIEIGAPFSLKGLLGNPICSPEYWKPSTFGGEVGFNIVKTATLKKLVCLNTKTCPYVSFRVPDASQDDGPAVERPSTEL
Description: In Vitro activity of compound against human recombinant Prostaglandin G/H synthase 1

For the compound `Cc1ccc(-c2cc(C(F)(F)F)nn2-c2ccc(S(N)(=O)=O)cc2)cc1` [CELECOXIB], the IC50 is 0.164 µM in assay [1] and 6.67 µM in assay [2].

`NS(=O)(=O)c1ccc(-c2c(-c3ccccc3)noc2CO)cc1` [HYDROXYLATED DERIVATIVE]: the IC50 is 1120 µM in assay [3], 0.329 µM in assay [1] and more than 50 µM in assay [2].

`Cc1onc(-c2ccccc2)c1-c1ccc(S(N)(=O)=O)cc1` [VALDECOXIB]: the concentration for half-maximal inhibition (IC50) came out at 0.89 µM in assay [1] and 25.4 µM in assay [2].

The IC50 is the concentration needed to halve the response being measured. A low value points to higher potency.
